The values that follow come from patent publication US11058668B2 (EIDOS THERAPEUTICS, INC., priority 2018, dated 2021).

In one data set the target is T1, TTR in human serum (Homo sapiens, UniProt P02766).
T1 construct: pooled human serum (prepared from human male AB plasma, Sigma; catalog no; H4522; TTR concentration 5 μM); tissue Sigma H4522; host or cells: pooled human serum from human male AB plasma
Nature of the data set: FPE assay in human serum. The class given is binding. The settings on record: stabilizers 10 μM, human serum TTR 5 μM; FPE.

For data set [1], the target named is T2, TTR (Homo sapiens, UniProt P02766). Nature of the data set: Isothermal titration calorimetry (ITC) with TTR in buffer. The settings on record: 25° C.; for Kd: PBS pH 7.4, single-site binding model. A general note: In ITC the heat of successive injections is recorded.
Procedure: (§1) Isothermal Titration Calorimetry (ITC). Binding experiments were performed using MicroCal PEAQ-ITC at 25° C. […] 19 injections of ligand (2.0 μL each) were injected into the ITC cell (at 25° C.) to the point that TTR was fully saturated with ligand. Calorimetric data were plotted and fitted using the standard single-site binding model.
Data set [2] addresses T2, TTR. The settings on record: Tafamidis Phase 2 (FDA CDER background package); diflunisal observational study (Hanson 2018); cited from earlier work.
Data set [3] can be described thus: pKa values of stabilizers. The class given is physicochemical. To be noted: carboxylic acid group.
The subject of data set [4] is TTR. Nature of the data set: Phase 2 study in ATTR-CM patients, serum TTR concentration (ARUP Prealbumin assay). The settings on record: all genotypes, ATTR-CM patients. The class given is in vivo, human. Here is the method: Screening and randomization will be followed by a 28-day blinded, placebo-controlled treatment period. Approximately 45 subjects are planned to enroll in the Phase 2 study.
An ARUP Prealbumin assay was also used to analyze TTR blood serum concentration in the MAD cohorts tested. ARUP analyzes samples for prealbumin using the prealbumin reagent kit provided by Roche Diagnostics and run on the Roche Diagnostics c702 module. Lowest reportable limit is 3 mg/dL.
The phase 2 clinical study was performed essentially as described in Example 3. A total of 49 patents were included instead of 45: 16 receiving 400 mg bid; 16 receiving 800 mg bid; and 17 receiving placebo.
TTR stabilization was measured ex vivo using the FPE and Western blot assays described at the beginning of the examples section. TTR stabilization was measured in vivo by monitoring TTR serum concentrations in trial participants.

The target in data set [5] is T3, TTR (Canis lupus familiaris, UniProt A0A8I3NFK0).
T3 construct: from tissue; host or cells: serum of orally dosed beagle dogs
Nature of the data set: Single oral dose PK-PD in dogs, TTR occupancy by FPE. The class given is in vivo, beagle dog. To be noted: 5 or 20 mg/kg AG10 HCl single oral dose. Here is the method: FPE assay for binding TTR in buffer and human or dog serum. […] The FPE probe is a thioester TTR ligand that is not fluorescent by itself, however upon binding to the T4 binding site of TTR it covalently modifies lysine 15 (K15), creating a fluorescent conjugate. Ligands that bind to the T4 site of TTR will decrease FPE probe binding as observed by lower fluorescence. The FPE assay was also adapted for use with dog serum. FPE with TTR in buffer: An aliquot of 98 μL of TTR in PBS (pH 7.4, final concentration: 2.5 μM) was mixed with 1 μL of test compounds (2.5 μM) and 1 μL of FPE probe (0.18 mM stock solution in DMSO: final concentration: 1.8 μM). The change in fluorescence (λex=328 nm and λem=384 nm) were monitored using a microplate spectrophotometer reader (SpectraMax M5) for 6 hr at rt. […] The change in fluorescence (λex=328 nm and λem=384 nm) were monitored using a microplate spectrophotometer reader (SpectraMax M5) for 6 hr at rt.
Blood was collected and analyzed pre-dose and at 2, 4, 6, 8, 12 and 24 hr post-dose.

The target of the next data set is purified human TTRwt (Homo sapiens, UniProt P02766). As to the kind of experiment: Modified FPE assay with purified TTR plus other serum proteins (selectivity). The class given is binding. The settings on record: purified TTR 5 μM.
Data set [6] addresses T4, human serum albumin (HSA) (Homo sapiens, UniProt P02768). Nature of the data set: ITC against human serum albumin. To be noted: ITC titration against human serum albumin.
Procedure: as §1
The target in data set [7] is T4, human serum albumin (HSA). As to the kind of experiment: Gel filtration and dialysis binding to human serum albumin. Also on record: albumin from human serum; Sigma Aldrich, catalog no.: A3782; purchased Sigma Aldrich A3782; host or cells: human serum. The settings on record: 30 μM compound, 600 μM albumin. The method, then: The concentration of HSA (i.e. concentration at time zero) was also determined using NanoDrop™ (based on calibration curves of known HAS concentrations). […] The concentration of test compounds in these fractions (i.e. conc. at time zero) was evaluated using HPLC (based on calibration curves of known concentration of test compounds). 500 μL of each HSA/test compound samples was then added to a Slide-A-Lyzer Dialysis Cassette G2 (3.5K MWCO, Thermo Scientific, catalog no. P187722). The dialysis Cassettes were placed in 100 ml of assay buffer and stirred at room temperature. After 24 hr, the samples were removed from dialysis cassette and the volume was measured. The concentration of HAS and test compounds were determined using NanoDrop™ and HPLC as described above.
(In general: In gel filtration, larger molecules generally elute earlier.)

“And” between values parts separate entries of the source, which are not always exact repeats. Equal values may be shown once.

T4 sequence (P02768 25-609): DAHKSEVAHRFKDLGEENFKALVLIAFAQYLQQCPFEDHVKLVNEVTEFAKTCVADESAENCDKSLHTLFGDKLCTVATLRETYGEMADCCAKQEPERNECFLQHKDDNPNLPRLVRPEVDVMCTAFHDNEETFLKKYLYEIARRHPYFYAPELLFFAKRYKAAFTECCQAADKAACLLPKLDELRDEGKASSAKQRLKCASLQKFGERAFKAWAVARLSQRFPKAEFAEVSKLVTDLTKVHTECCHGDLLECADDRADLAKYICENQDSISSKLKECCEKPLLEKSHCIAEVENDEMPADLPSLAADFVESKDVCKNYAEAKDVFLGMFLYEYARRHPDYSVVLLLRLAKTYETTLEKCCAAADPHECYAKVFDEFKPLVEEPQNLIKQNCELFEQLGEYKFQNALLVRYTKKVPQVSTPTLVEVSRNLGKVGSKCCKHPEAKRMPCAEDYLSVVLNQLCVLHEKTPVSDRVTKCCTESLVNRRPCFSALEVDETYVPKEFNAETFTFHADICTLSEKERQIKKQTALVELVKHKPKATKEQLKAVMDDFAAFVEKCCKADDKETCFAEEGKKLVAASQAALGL
Source text for TTR in human serum: FPE assay for binding TTR in buffer and human or dog serum. […] The FPE probe is a thioester TTR ligand that is not fluorescent by itself, however upon binding to the T4 binding site of TTR it covalently modifies lysine 15 (K15), creating a fluorescent conjugate. Ligands that bind to the T4 site of TTR will decrease FPE probe binding as observed by lower fluorescence. […] The change in fluorescence (λex=328 nm and λem=384 nm) were monitored using a microplate spectrophotometer reader (SpectraMax M5) for 6 hr at rt. […] The change in fluorescence (λex=328 nm and λem=384 nm) were monitored using a microplate spectrophotometer reader (SpectraMax M5) for 6 hr at rt.
Procedure for purified human TTRwt: The percentage of FPE probe binding to TTR in the presence of serum proteins measured after 3 hr of incubation was used to calculate % TTR occupancy.

By Kd is commonly meant the constant that tells how readily two partners part at equilibrium. Low readings indicate tighter binding, high ones weaker binding. Turning to `Cc1n[nH]c(C)c1CCCOc1cc(C(=O)O)ccc1I` [compound 1, 3-(3-(3,5-dimethyl-1H-pyrazol-4-yl)propoxy)-4-iodobenzoic acid], the “% TTR Occupancy in Serum (2:1 ratio)” value at TTR in human serum came out at 75.9 ± 3.1%. Besides, on TTR [1], the TΔS is -0.21 kcal/mol, the ΔG is -9.61 kcal/mol, the ΔH is -9.82 kcal/mol and the Kd turned out to be 90 ± 14 nM.

In the case of `COC(=O)c1ccc(F)c(OCCCc2c(C)n[nH]c2C)c1` [compound 2, Methyl 3-(3-(3,5-dimethyl-1H-pyrazol-4-yl)propoxy)-4-fluorobenzoate], on TTR [1], the TΔS amounted to 2.5 kcal/mol; the ΔG is -8.99 kcal/mol; the ΔH is -6.49 kcal/mol; the affinity, expressed as Kd, was 258 ± 17 nM.

`Cc1nn(C)c(C)c1CCCOc1cc(C(=O)O)ccc1F` [compound 3, 4-fluoro-3-(3-(1,3,5-trimethyl-1H-pyrazol-4-yl)propoxy)benzoic acid]: at TTR [1], the TΔS is reported as 4.27 kcal/mol, the ΔG was -9.0 kcal/mol, the ΔH is -4.73 kcal/mol and the Kd was determined as 251 ± 12 nM.

Usually pKa stands for the pH at which an ionisable group is half protonated. Regarding `O=C(O)c1cc(-c2ccc(F)cc2F)ccc1O` [Diflunisal, reference compound], on TTR [2], the “change in serum TTR levels” value is reported as “increased serum TTR levels”. In addition, the pKa in data set [3] is 2.94. Further, on TTR [1], the TΔS is on record as 0.34 kcal/mol and the ΔH was -8.38 kcal/mol.

As for `Cc1n[nH]c(C)c1CCCOc1cc(C(=O)O)ccc1F.Cl` [AG10 HCl], the figures for the “Blood Serum TTR Concentration, Average Change (baseline to day 28)” value in the data set with TTR [4] (400 mg b.i.d.) and with TTR [4] (800 mg b.i.d.) were 36% and 50%, respectively. The “TTR occupancy, dose comparison” value on TTR [5] is recorded as “enhanced TTR occupancy in the 20 mg/kg vs. 5 mg/kg dose groups”.

On to `O=C(O)c1ccc2nc(-c3cc(Cl)cc(Cl)c3)oc2c1` [Tafamidis, 2-(3,5-dichlorophenyl)-1,3-benzoxazole-6-carboxylic acid, reference compound], for which the “change in serum TTR levels” value on TTR [2] is reported as “increased serum TTR levels”. Also, the TTR occupancy at purified human TTRwt (in the absence of albumin) is on record as 68.2±0.1%; at purified human TTRwt (in the presence of albumin (600 μM)), 41.5±0.9%. In addition, in data set [6], the Kd was 2300 nM. The “concentration bound to HSA following dialysis vs buffer for 24 hr” value in data set [7] came out at 18.8 ± 2.1 µM. Besides, in [7], the “concentration bound to albumin at time 0 (immediately after gel filtration)” value was found to be 24.1 ± 1.1 µM. The pKa in data set [3] is 3.73. For the same compound, the TΔS at TTR [1] was 6.39 kcal/mol. The ΔH on TTR [1] was -5.0 kcal/mol; on TTR [1] (listed as tafamidis), -5.00 kcal/mol and -5.0 kcal/mol.

On TTR [1], `CCc1n[nH]c(CC)c1CCCOc1cc(C(=O)O)ccc1F` [compound 4, 3-(3-(3,5-diethyl-1H-pyrazol-4-yl)propoxy)-4-fluorobenzoic acid] came in with a TΔS of 6.0 kcal/mol, a ΔG of -8.1 kcal/mol, a ΔH of -2.1 kcal/mol and a Kd of 1250 ± 79 nM.
